Columns and labels:
BALB/c mice = test: Immunization test on mice: specific IgG1 and IgG2a by ELISA; format: in vivo; conditions: Tat vaccine compositions; level and dispersion of the results between mice
Method: 5. Immunization Test on Mice.
There are available 4 groups of 6 female BALB/c mice 8 weeks old to which one of the compositions prepared in example 4 is injected subcutaneously at the rate of a dose of 200 μl per mouse; the injections are performed on D0 and at D21.
Blood samples are collected at the retro-orbital sinus at D14 for assessing the primary response and at D32 for the secondary response. The determination of the level of specific IgG1 and IgG2a is carried out by virtue of the standard ELISA tests.
The results obtained as regards the humoral responses are summarized in the table below and in FIGS. 1 to 4, where the IgG levels are expressed as arbitrary ELISA units (log10).
For each group of mice, the value indicated in the table is the mean geometric titer of the values obtained for each of the mice.

[1] = system: dendritic cells derived from human monocytes; test: Stimulation of human cells in vitro: ELISA of secreted cytokines; format: cell-based; conditions: 2 days culture; DPPC liposomes, R-848 2.96 μg/ml, ER804057 0.1 μg/ml; mean of 4 donors
Method: (§1) The capacity of the compositions according to the invention to induce the maturation of dendritic cells derived from human monocytes in vitro is evaluated for 4 independent donors. The monocytes are obtained from peripheral blood mononuclear cells and are cultured for 5-6 days in the presence of IL4 and of GM-CSF. […] There are then carried out a phenotype analysis by flow cytometry, making it possible to measure the expression of the maturation markers CD25, CD80 and CD83, and an ELISA measurement of the cytokines (TNF-α, IL6 and IL12p70) secreted by these cells. The results indicated in the tables below represent the mean values calculated for the 4 donors: […]

[2] = system: dendritic cells derived from human monocytes; test: Stimulation of human cells in vitro: maturation markers by flow cytometry; format: cell-based; conditions: 2 days culture; DPPC liposomes, R-848 2.96 μg/ml, ER804057 0.1 μg/ml; mean of 4 donors
Method: as §1

Toll-like 8 receptor = biological target: T1, Toll-like 8 receptor (Homo sapiens, UniProt Q9NR97); conditions: cited from earlier work
T1 sequence (Q9NR97 27-1041): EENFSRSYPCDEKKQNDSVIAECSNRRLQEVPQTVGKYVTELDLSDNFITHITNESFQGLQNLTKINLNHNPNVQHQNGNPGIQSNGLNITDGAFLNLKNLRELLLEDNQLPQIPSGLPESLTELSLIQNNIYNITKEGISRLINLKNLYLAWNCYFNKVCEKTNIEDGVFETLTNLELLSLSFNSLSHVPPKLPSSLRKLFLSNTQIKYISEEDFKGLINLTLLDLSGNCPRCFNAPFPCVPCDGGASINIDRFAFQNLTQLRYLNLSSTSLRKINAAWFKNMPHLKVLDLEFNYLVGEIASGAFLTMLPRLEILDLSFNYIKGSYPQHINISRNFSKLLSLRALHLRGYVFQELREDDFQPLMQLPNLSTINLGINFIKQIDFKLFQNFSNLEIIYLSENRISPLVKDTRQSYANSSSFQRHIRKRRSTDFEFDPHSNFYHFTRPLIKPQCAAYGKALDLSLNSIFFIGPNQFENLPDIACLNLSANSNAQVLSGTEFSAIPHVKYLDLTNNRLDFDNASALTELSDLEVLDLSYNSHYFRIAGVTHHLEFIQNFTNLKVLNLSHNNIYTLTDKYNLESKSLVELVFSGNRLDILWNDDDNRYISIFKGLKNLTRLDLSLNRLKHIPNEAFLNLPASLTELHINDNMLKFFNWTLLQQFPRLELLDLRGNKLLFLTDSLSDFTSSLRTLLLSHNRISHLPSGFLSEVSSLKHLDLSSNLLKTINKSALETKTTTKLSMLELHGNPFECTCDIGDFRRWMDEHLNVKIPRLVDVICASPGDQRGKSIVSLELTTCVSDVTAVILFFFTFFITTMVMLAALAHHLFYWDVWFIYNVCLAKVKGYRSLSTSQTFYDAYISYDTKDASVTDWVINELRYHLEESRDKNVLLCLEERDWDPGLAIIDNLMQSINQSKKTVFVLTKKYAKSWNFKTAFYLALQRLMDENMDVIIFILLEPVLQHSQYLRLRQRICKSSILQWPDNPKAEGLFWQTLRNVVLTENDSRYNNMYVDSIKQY

Toll-like 7 receptor = biological target: T2, Toll-like 7 receptor (Homo sapiens, UniProt Q9NYK1); conditions: cited from earlier work
T2 sequence (Q9NYK1 27-1049): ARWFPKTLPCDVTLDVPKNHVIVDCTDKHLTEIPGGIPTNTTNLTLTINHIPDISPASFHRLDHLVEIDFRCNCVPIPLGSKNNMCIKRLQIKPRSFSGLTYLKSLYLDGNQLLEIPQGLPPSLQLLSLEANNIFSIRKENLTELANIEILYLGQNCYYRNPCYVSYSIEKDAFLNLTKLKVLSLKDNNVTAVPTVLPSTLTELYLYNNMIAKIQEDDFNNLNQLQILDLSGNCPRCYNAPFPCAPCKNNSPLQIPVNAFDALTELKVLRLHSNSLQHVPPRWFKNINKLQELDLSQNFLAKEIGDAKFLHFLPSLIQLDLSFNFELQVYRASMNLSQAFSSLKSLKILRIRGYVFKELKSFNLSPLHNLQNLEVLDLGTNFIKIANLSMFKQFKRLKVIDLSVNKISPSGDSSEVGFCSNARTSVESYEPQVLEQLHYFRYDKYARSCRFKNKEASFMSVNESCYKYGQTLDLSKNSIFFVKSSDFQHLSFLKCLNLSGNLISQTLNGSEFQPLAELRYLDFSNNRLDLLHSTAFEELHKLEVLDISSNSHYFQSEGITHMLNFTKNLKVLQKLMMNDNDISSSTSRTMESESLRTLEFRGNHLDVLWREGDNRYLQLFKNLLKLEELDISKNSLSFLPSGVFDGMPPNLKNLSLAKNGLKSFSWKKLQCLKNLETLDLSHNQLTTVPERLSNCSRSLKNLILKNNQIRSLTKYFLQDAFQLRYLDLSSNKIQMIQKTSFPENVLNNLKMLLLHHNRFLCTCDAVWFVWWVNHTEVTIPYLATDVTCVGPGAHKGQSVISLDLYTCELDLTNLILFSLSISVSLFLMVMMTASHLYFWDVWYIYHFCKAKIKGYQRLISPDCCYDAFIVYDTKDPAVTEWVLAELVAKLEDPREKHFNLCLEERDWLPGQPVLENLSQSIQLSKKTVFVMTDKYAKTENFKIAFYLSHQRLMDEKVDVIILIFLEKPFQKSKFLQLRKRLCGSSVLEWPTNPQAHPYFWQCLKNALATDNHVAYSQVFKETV

mice = conditions: ovalbumin as antigen; cited from earlier work

| SMILES | IgG2a response obtained after the injection of the booster, individual mice (FIGS. 1 to 4) (BALB/c mice) | Quantity of cytokines IL 6 [1] [pg/mL] | Quantity of cytokines IL12p70 [1] [pg/mL] | Quantity of cytokines TNF-α [1] [pg/mL] | Percentage of cells expressing the markers CD25 [2] [%] | Percentage of cells expressing the markers CD80 [2] [%] | Percentage of cells expressing the markers CD83 [2] [%] | activation of cells via the Toll-like 8 receptor (Toll-like 8 receptor) | activation of cells via the Toll-like 7 receptor (Toll-like 7 receptor) | adjuvant type (mice) |
| --- | --- | --- | --- | --- | --- | --- | --- | --- | --- | --- |
| CCOCc1nc2c(N)nc3ccccc3c2n1CC(C)(C)O [R-848, 4-amino-2-ethoxymethyl-α,α-dimethyl-1-H-imidazo[4,5c]quinoline-1-ethanol] | on average satisfactory | 8263 | 288 | 1727 | 25 | 34 | 19 | activates the cells | activates the cells | adjuvant of the TH1 type |
| CCCCCCCCCCCC(=O)CC(=O)N[C@H](COCC[C@@H](CCCCCCC)OC(=O)CCCCCCCCCCC)COP(=O)(O)OCCNC(=O)NCCOP(=O)(O)OC[C@@H](COCC[C@@H](CCCCCCC)OC(=O)CCCCCCCCCCC)NC(=O)CC(=O)CCCCCCCCCCC [ER804057, (1R,6R,22R,27R)-1,27-diheptyl-1,27-bisdodecanoyl-9,19-dihydroxy-9,19-dioxido-14-oxo-6,22-bis[(1,3-dioxotetradecyl)amino]-4,8,10,18,20,24-hexaoxa-13,15-diaza-9,19-diphosphoheptacosan] | on average satisfactory | 8349 | 22 | 393 | 35 | 46 | 15 |  |  |  |

— patent publication US20070087009A1, “Immunostimulant composition comprising at least one toll-like receptor 7 or toll-like receptor 8 agonist and a toll-like receptor 4 agonist” (SANOFI PASTEUR, priority 2003, published 2007)
